Results as given in PMC12881670, “Investigation into ligand selectivity and bias at the formyl peptide receptor family” (The Journal of Pharmacology and Experimental Therapeutics, 2025).
Entries after “also recorded” stand apart in the source; their conditions may differ. Where two headings read alike, the source gives them in different places. Where a SMILES comes first, the peptide text is derived from it. Where no end group is shown, it is not given here. The star is where a group is joined. For = O=C*

Tests used:
Format in all cases: cell-based
[1] = biological target: T1, Hs_FPR1 (Homo sapiens, UniProt P21462); experiment: BRET receptor-RLuc8 interaction with Venus-mGsi; conditions: for Log EC50 (M): log of EC50, HEK293 transient, 10 min; for Log EC50 (M) / Emax (%): mGsi BRET, mean, ND = no interaction detected; for Emax (%): % of response to 1 μM WKYMVm
T1 construct: expressed in transfected cells
T1 sequence (P21462 1-350): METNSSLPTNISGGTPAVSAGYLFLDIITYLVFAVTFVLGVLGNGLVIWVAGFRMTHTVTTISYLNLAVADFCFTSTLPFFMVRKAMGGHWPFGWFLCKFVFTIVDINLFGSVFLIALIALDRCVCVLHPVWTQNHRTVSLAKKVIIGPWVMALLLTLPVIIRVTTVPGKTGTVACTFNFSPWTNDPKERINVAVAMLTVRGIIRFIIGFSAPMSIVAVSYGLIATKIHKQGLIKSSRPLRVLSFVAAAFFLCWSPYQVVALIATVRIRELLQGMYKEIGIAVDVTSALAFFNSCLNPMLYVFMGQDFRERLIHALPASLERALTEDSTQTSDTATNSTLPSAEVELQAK
Method in brief: (§1)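 Receptor-RLuc8 and acceptor plasmids (Venus-mGsi or YFP-Arrestin 3, 1:4) are transfected; cells are replated after 24 h and grown 24–48 h more. Wells are equilibrated 30 min in HBSS, given coelenterazine h (5 μM final), dosed with compound 5 min later and held 10 min at 37 °C before the BRET read.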

[2] = biological target: T2, Mm_Fpr2 (Mus musculus, UniProt O88536); experiment: BRET receptor-RLuc8 interaction with Venus-mGsi; conditions: for Log EC50 (M): log of EC50, HEK293 transient, 10 min; for Log EC50 (M) / Emax (%): mGsi BRET, mean, ND = no interaction detected; for Emax (%): % of response to 1 μM WKYMVm
T2 construct: expressed in transfected cells
T2 sequence (O88536 1-351): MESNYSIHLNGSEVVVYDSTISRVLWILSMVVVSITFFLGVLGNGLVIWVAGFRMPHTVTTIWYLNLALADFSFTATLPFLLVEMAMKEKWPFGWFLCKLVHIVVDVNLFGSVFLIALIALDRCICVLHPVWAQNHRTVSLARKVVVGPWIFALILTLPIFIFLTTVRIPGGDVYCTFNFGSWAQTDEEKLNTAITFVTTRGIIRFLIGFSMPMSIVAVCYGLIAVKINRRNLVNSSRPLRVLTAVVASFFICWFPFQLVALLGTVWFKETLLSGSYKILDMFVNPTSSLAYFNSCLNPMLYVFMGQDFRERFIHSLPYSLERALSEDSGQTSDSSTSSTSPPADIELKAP
Method in brief: as §1

[3] = biological target: T3, Mm_Fpr1 (Mus musculus, UniProt P33766); experiment: ERK1/2 phosphorylation by Western blotting; design: Emax: dose or concentration left out as unconfirmed; conditions: for Log EC50 (M) / EC50: log of EC50, phosphorylation of ERK1/2, HEK293 stable cells; for Log EC50 (M) / Emax (%) / EC50: mean, ND = no pERK signal detected; for Emax (%): phospho-ERK, % of 1 μM WKYMVm
T3 construct: expressed in transfected cells
T3 sequence (P33766 1-364): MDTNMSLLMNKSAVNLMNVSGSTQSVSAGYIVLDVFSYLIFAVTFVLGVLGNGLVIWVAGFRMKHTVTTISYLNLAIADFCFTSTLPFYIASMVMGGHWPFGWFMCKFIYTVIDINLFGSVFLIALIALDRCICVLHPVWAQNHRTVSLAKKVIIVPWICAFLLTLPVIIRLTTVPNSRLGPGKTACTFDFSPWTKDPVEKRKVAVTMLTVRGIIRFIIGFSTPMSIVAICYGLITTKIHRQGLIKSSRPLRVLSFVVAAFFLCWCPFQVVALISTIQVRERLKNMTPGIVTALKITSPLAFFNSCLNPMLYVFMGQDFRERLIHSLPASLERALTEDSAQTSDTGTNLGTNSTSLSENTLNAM

[4] = biological target: T1, Hs_FPR1; experiment: BRET receptor-RLuc8 interaction with Arrestin 3-YFP; conditions: for Emax (%) / Log EC50 (M): Arrestin 3 BRET, mean, ND = no interaction detected; for Emax (%): % of response to 1 μM WKYMVm; for Log EC50 (M): log of EC50, HEK293 transient, 10 min
Method in brief: as §1

[5] = biological target: T3, Mm_Fpr1; experiment: as above; conditions: for Emax (%) / Log EC50 (M): Arrestin 3 BRET, mean, ND = no interaction detected; for Emax (%): % of response to 1 μM WKYMVm; for Log EC50 (M): log of EC50, HEK293 transient, 10 min
Method in brief: as §1

[6] = biological target: T2, Mm_Fpr2; experiment: as above; conditions: for Emax (%) / Log EC50 (M): Arrestin 3 BRET, mean, ND = no interaction detected; for Emax (%): % of response to 1 μM WKYMVm; for Log EC50 (M): log of EC50, HEK293 transient, 10 min
Method in brief: as §1

[7] = biological target: T1, Hs_FPR1; experiment: Internalization of FLAG-tagged receptors by flow cytometry; design: Emax: dose or concentration left out as unconfirmed; conditions: for agonist-induced internalization (words): Hs_FPR1, 30 min, relative to 1 μM WKYMVm; for Emax: read-out: Emax (%), internalization, Mean
Procedure: (§2) Internalization of FPRs was measured by flow cytometry.[30] Briefly, cells were incubated with Alexa Fluor 657 conjugated M1 antiflag antibody (Sigma-Aldrich Cat# F3040, RRID:AB_439712) for 30 minutes at 37 °C to label surface receptors. Cells were then incubated with the indicated concentration of ligand before washing in PBS/0.04% EDTA to remove any remaining surface antibody. Remaining fluorescence was then measured using flow cytometry on either a BD FACScalibur or Attune, recording 5000 gated events. […] As a control, some samples were left untreated, and “strip only” was measured as a readout of constitutive endocytosis, and this value was subtracted from the data.
(§3) All data were analyzed using GraphPad Prism using the nonlinear regression log(agonist) versus response (3 parameters) function for all assays, except binding, which was analyzed using the One site-FitlogIC50 function. Bias calculations were carried out following IUPHAR guidelines as described,[27]^,[37] and data were presented as the Δ Activity ratio (Log[EmaxB/EC50B])-(Log[EmaxA/EC50A]).

[8] = biological target: T4, Hs_FPR2 (Homo sapiens, UniProt P25090); experiment: as above; design: Emax: dose or concentration left out as unconfirmed; conditions: for Emax (%), internalization, Mean: % of internalization to WKYMVm (1 mM in legend, 1 μM in text), Hs_FPR2, 30 minutes; for Emax (%), internalization, Mean / Log EC50 (M), internalization, Mean: ND denotes no internalization measured; for agonist-induced internalization (words): Hs_FPR2, 30 min, relative to 1 μM WKYMVm; for Log EC50 (M), internalization, Mean: HEK293 stably expressing FLAG-Hs_FPR2, ligand 30 minutes
T4 construct: expressed in transfected cells
T4 sequence (P25090 1-351): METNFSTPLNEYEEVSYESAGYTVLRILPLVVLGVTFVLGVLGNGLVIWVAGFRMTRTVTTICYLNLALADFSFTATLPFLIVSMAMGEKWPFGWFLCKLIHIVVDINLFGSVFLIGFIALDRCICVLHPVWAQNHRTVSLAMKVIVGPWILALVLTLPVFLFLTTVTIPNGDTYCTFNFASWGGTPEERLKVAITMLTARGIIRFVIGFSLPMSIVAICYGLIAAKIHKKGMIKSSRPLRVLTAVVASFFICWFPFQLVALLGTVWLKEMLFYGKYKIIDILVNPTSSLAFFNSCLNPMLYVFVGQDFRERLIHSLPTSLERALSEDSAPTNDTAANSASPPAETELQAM
Procedure: as §2, §3

Compound	Log EC50 (M) [1] [M]	Emax (%) [1] [%]	Log EC50 (M) [2] [M]	Emax (%) [2] [%]	Log EC50 (M) [3] [M]	Emax (%) [3] [%]	Emax (%) [4] [%]	Log EC50 (M) [4] [M]	Emax (%) [5] [%]	Log EC50 (M) [5] [M]	agonist-induced internalization (words) [7]	agonist-induced internalization (words) [8]	Log EC50 (M), internalization, Mean [8] [M]	Emax [1] [%]	Emax [2] [%]	Emax [3] [%]	Emax [4] [%]	Emax [5] [%]	Emax [6] [%]	Emax [8] [%]	further results
Cc1cccc(-c2oc(C)nc2C(=O)Nc2cnn(Cc3nc(C(C)(F)F)co3)n2)c1 [ACT-389949]	−6.47	60.56	−7.57	116.06	−6.383	99.504	86.48	−6.00	52.62	−5.98	only at 10 μM	full agonist	−7.975	–	–	–	–	–	–	–	Emax (%) [6]: 95.34%; Log EC50 (M) [6]: −7.66 M; Emax (%), internalization, Mean [8]: 95.31%
COc1cc(F)c([C@@H]2CNC(=O)[C@H]2NC(=O)Nc2ccccc2)c(F)c1 [BMS-986235]	–	–	–	–	–	–	–	–	–	–	failed to show appreciable internalization; also recorded: unable to induce any measurable internalization	robust internalization	–	7.4	104	114	5.54	18.2	100	112	EC50 [1]: 2240 nM; EC50 [2]: 166 nM; EC50 [3]: 982 nM; EC50 [4]: 2290 nM; EC50 [5]: 6.76 nM; efficacy, % of WKYMVm ([5]; Mm_Fpr1, mGsi versus Arrestin3 bias comparison): < 20%; EC50 [6]: 151 nM; EC50 ([8]; read-out: Log EC50 (M), internalization, Mean (converted)): 9.1e-07 M
CCCCOc1ccc(C(=O)NN2C(=O)c3ccccc3NC2c2ccc(OC)cc2)cc1 (stereo not drawn) [QuinC1]	−5.34	17.60	−6.35	70.36	−6.945	150.3	17.25	−5.35	49.50	−6.33	partial agonists	partial agonists	−5.809	–	–	–	–	–	–	–	Emax (%) [6]: 68.75%; Log EC50 (M) [6]: −6.40 M; Emax (%), internalization, Mean [8]: 81.29%
CSCC[C@H](NC(=O)[C@H](Cc1ccc(O)cc1)NC(=O)[C@H](CCCCN)NC(=O)[C@@H](N)Cc1c[nH]c2ccccc12)C(=O)N[C@H](C(=O)N[C@H](CCSC)C(N)=O)C(C)C [WKYMVm]	–	–	–	–	–	–	–	–	–	–	–	–	–	112	103	102	105	112	101	97.5	Emax [7]: 106%
CSCC[C@H](NC=O)C(=O)N[C@@H](CC(C)C)C(=O)N[C@@H](Cc1ccccc1)C(=O)N[C@@H](CCCCN)C(=O)O [fMLFK, fMet-Leu-Phe-Lys] (For-MLFK-OH)	–	–	–	–	–	–	–	–	–	–	–	–	–	104	82.7	140	97.4	95.2	72.5	99.9	EC50 [1]: 85.1 nM; EC50 [2]: 30200 nM; EC50 [3]: 851 nM; EC50 [4]: 35.5 nM; EC50 [5]: 7240 nM; EC50 [6]: 16200 nM; EC50 [7]: 16.2 nM; Emax [7]: 79.3%; EC50 [8]: 3.34e-05 M
LESIFRSLLFRVM [MMK1]	–	–	–	–	–	–	–	–	–	–	failed to show appreciable internalization	partial agonism	−7.216	–	–	–	–	–	–	62.9	agonist-induced internalization (words) ([7]; listed as MMK-1): unable to induce internalization
